# Assays:
# Format in all cases: functional
# [1] = system: Ctenocephalides felis; assay: Parasiticidal activity against Ctenocephalides felis assessed as mortality after 24 hrs by cat flea assay; set-up: concentration or dose not given beside the values
# [2] = system: Rhipicephalus sanguineus; assay: Parasiticidal activity against Rhipicephalus sanguineus assessed as mortality after 24 hrs by brown dog tick assay; set-up: concentration or dose not given beside the values
# [3] = system: Ctenocephalides felis; assay: Parasiticidal activity against Ctenocephalides felis by cat flea assay
# [4] = system: Haemonchus contortus; assay: Parasiticidal activity against Haemonchus contortus by larval assay
# [5] = system: Rhipicephalus sanguineus; assay: Parasiticidal activity against Rhipicephalus sanguineus assessed per tick by brown dog tick assay
Compound,Activity [1],Activity [2],LC50 [3],LD99 [4],LD50 [5]
O=S(=O)(Nc1ccc(Cl)cc1/C(=N/OC1CCCCC1)c1ccccc1)C(F)(F)F,12%,45%,–,–,–
C=CCO/N=C(\CC)c1cc(Cl)ccc1NS(=O)(=O)C(F)(F)F,100%,100%,21 ng/cm2,32 µM,0.67 µg
C/C(=N\Oc1ccc(Cl)cc1)c1cc(Cl)ccc1NS(=O)(=O)C(F)(F)F,90%,–,–,1 µM,–
CC(C)/C(=N\Oc1ccc(Cl)cc1)c1cc(Cl)ccc1NS(=O)(=O)C(F)(F)F,100%,65%,71 ng/cm2,11 µM,1.7 µg
CC/C(=N\Oc1cccc(C(F)(F)F)c1)c1cc(Cl)ccc1NS(=O)(=O)C(F)(F)F,71%,–,–,2 µM,–
CC/C(=N\OC1CCCCC1)c1cc(Cl)ccc1NS(=O)(=O)C(F)(F)F,100%,100%,–,–,5.7 µg
CC/C(=N\Oc1ccc(Cl)cc1)c1ccc(C(F)(F)F)cc1NS(=O)(=O)C(F)(F)F,100%,17%,–,–,–
CC/C(=N\OCc1ccc(Cl)c(Cl)c1)c1cc(Cl)ccc1NS(=O)(=O)C(F)(F)F,100%,–,–,1.3 µM,–
CC/C(=N\OC1CCCC1)c1cc(Cl)ccc1NS(=O)(=O)C(F)(F)F,100%,100%,21 ng/cm2,25 µM,1.5 µg
CC/C(=N\OCc1cccs1)c1cc(Cl)ccc1NS(=O)(=O)C(F)(F)F,100%,70%,7 ng/cm2,35 µM,2.5 µg
O=S(=O)(Nc1ccc(Cl)cc1/C(=N/OCC1CCCCC1)c1ccccc1)C(F)(F)F,8%,52%,–,–,–
CO/N=C(\C)c1cc(Cl)ccc1NS(=O)(=O)C(F)(F)F,100%,93%,–,–,–
CC/C(=N\OCc1ccc(Cl)cc1)c1ccc(C(F)(F)F)cc1NS(=O)(=O)C(F)(F)F,100%,25%,–,–,–
C=CCO/N=C(\C)c1cc(Cl)ccc1NS(=O)(=O)C(F)(F)F,100%,100%,–,–,–
CC/C(=N\OCc1ccc(Br)cc1)c1cc(Cl)ccc1NS(=O)(=O)C(F)(F)F,78%,58%,–,1.8 µM,–
C/C(=N\OC(C)(C)C)c1cc(Cl)ccc1NS(=O)(=O)C(F)(F)F,100%,92%,41 ng/cm2,16 µM,1.4 µg
N#Cc1nn(-c2c(Cl)cc(C(F)(F)F)cc2Cl)c(N)c1[S+]([O-])C(F)(F)F (stereo not given) [FIPRONIL],–,–,0.1 ng/cm2,–,–
CC/C(=N\Oc1ccc(Br)cc1)c1cc(Cl)ccc1NS(=O)(=O)C(F)(F)F,78%,–,–,3.7 µM,–
C/C(=N\OCc1ccc(Cl)cc1)c1cc(Cl)ccc1NS(=O)(=O)C(F)(F)F,100%,72%,–,3 µM,–
CC/C(=N\OCC1CC1)c1cc(Cl)ccc1NS(=O)(=O)C(F)(F)F,100%,100%,8 ng/cm2,36 µM,1.2 µg
C/C(=N\OCC1CCCCC1)c1cc(Cl)ccc1NS(=O)(=O)C(F)(F)F,96%,100%,–,–,–
CCO/N=C(\C)c1cccc(OC)c1NS(=O)(=O)C(F)(F)F,45%,–,–,>15 µM,–

Compound,Activity [1],Activity [2],LC50 [3],LD99 [4],LD50 [5]
C/C(=N\OC1CCCCC1)c1cc(Cl)ccc1NS(=O)(=O)C(F)(F)F,100%,100%,–,–,–
CC/C(=N\Oc1cccc(Cl)c1)c1cc(Cl)ccc1NS(=O)(=O)C(F)(F)F,100%,–,–,3.6 µM,–
COCCO/N=C(\C)c1cc(Cl)ccc1NS(=O)(=O)C(F)(F)F,100%,100%,12 ng/cm2,–,0.71 µg
C/C(=N\OCC1CC1)c1cc(Cl)ccc1NS(=O)(=O)C(F)(F)F,100%,100%,5 ng/cm2,–,1 µg
CCO/N=C(\C)c1ccccc1NS(=O)(=O)C(F)(F)F,92%,90%,–,>16 µM,–
CCO/N=C(\C)c1ccc(F)cc1NS(=O)(=O)C(F)(F)F,100%,8%,–,>15 µM,–
C/C(=N\Oc1cccc(C(F)(F)F)c1)c1cc(Cl)ccc1NS(=O)(=O)C(F)(F)F,96%,–,–,0.83 µM,–
O=S(=O)(Nc1ccc(Cl)cc1/C(=N/Oc1ccc(F)cc1)c1ccccc1)C(F)(F)F,21%,–,–,–,–
C/C(=N\OCC(F)(F)F)c1cc(Cl)ccc1NS(=O)(=O)C(F)(F)F,100%,82%,6 ng/cm2,18 µM,0.94 µg
CC/C(=N\OCc1cccc(Cl)c1Cl)c1cc(Cl)ccc1NS(=O)(=O)C(F)(F)F,63%,–,–,0.63 µM,–
CCC/C(=N\OC1CCCCC1)c1cc(Cl)ccc1NS(=O)(=O)C(F)(F)F,43%,–,–,–,–
CC/C(=N\OC(C)(C)C)c1cc(Cl)ccc1NS(=O)(=O)C(F)(F)F,100%,90%,43 ng/cm2,–,1.5 µg
CC/C(=N\OC)c1cc(Cl)ccc1NS(=O)(=O)C(F)(F)F,100%,95%,15 ng/cm2,16 µM,0.89 µg
C/C(=N\Oc1ccc(Cl)c(Cl)c1)c1cc(Cl)ccc1NS(=O)(=O)C(F)(F)F,71%,–,–,1.6 µM,–
CC1(C)C(C=C(Cl)Cl)C1C(=O)OCc1cccc(Oc2ccccc2)c1 (stereo not given),–,–,–,–,0.14 µg
C/C(=N\Oc1ccc(Br)cc1)c1cc(Cl)ccc1NS(=O)(=O)C(F)(F)F,91%,–,–,0.87 µM,–
CC/C(=N\OCc1ccc(C(F)(F)F)cc1)c1cc(Cl)ccc1NS(=O)(=O)C(F)(F)F,98%,90%,17 ng/cm2,0.84 µM,2.7 µg
C/C(=N\OCC1CCCC1)c1cc(Cl)ccc1NS(=O)(=O)C(F)(F)F,97%,100%,18 ng/cm2,7.5 µM,2.2 µg
C#CCO/N=C(\CC)c1cc(Cl)ccc1NS(=O)(=O)C(F)(F)F,100%,100%,27 ng/cm2,20 µM,0.86 µg
C/C(=N\OCc1ccc(Cl)cc1)c1ccc(C(F)(F)F)cc1NS(=O)(=O)C(F)(F)F,100%,27%,–,–,–
CC/C(=N\OCc1ccccc1C(F)(F)F)c1cc(Cl)ccc1NS(=O)(=O)C(F)(F)F,96%,31%,36 ng/cm2,2.7 µM,–
CCC/C(=N\OCc1ccc(Cl)cc1Cl)c1cc(Cl)ccc1NS(=O)(=O)C(F)(F)F,88%,–,–,3.6 µM,–

Compound,Activity [1],Activity [2],LC50 [3],LD99 [4],LD50 [5]
CCO/N=C(\C)c1cc(Cl)ccc1NS(=O)(=O)C(F)(F)F,100%,85%,–,>15 µM,–
CC/C(=N\Oc1ccc(Cl)c(Cl)c1)c1cc(Cl)ccc1NS(=O)(=O)C(F)(F)F,99%,–,6 ng/cm2,1.9 µM,–
CC/C(=N\OCCOC)c1cc(Cl)ccc1NS(=O)(=O)C(F)(F)F,100%,95%,–,–,–
CC/C(=N\Oc1ccc(Cl)cc1)c1cc(Cl)ccc1NS(=O)(=O)C(F)(F)F,100%,95%,51 ng/cm2,1 µM,–
CCC/C(=N\OCC1CCCCC1)c1cc(Cl)ccc1NS(=O)(=O)C(F)(F)F,70%,–,–,11 µM,–
CC/C(=N\OCC1CCCCC1)c1ccc(C(F)(F)F)cc1NS(=O)(=O)C(F)(F)F,97%,17%,–,–,–
CC/C(=N\OC(C)C)c1cc(Cl)ccc1NS(=O)(=O)C(F)(F)F,100%,100%,–,–,–
c1ccc([C@H]2CN3CCSC3=N2)cc1 [LEVAMISOLE],–,–,–,0.71 µM,–
O=S(=O)(Nc1ccc(Cl)cc1/C=N/OCc1ccc(Cl)c(Cl)c1)C(F)(F)F,42%,–,–,1.4 µM,–
CC/C(=N\OCC1CCCC1)c1cc(Cl)ccc1NS(=O)(=O)C(F)(F)F,97%,90%,–,–,–
CCC/C(=N\Oc1ccc(F)cc1)c1cc(Cl)ccc1NS(=O)(=O)C(F)(F)F,36%,–,–,–,–
C/C(=N\Oc1ccc(F)cc1)c1cc(Cl)ccc1NS(=O)(=O)C(F)(F)F,100%,100%,10 ng/cm2,4.6 µM,1.3 µg
CC/C(=N\OCc1ccc(Cl)cc1)c1cc(Cl)ccc1NS(=O)(=O)C(F)(F)F,100%,83%,12 ng/cm2,1.7 µM,2.5 µg
C/C(=N\Oc1cccc(Cl)c1)c1cc(Cl)ccc1NS(=O)(=O)C(F)(F)F,100%,47%,–,3.8 µM,–
CC/C(=N\Oc1ccc(F)cc1)c1cc(Cl)ccc1NS(=O)(=O)C(F)(F)F,100%,92%,35 ng/cm2,3.5 µM,1.5 µg
C#CCO/N=C(\C)c1cc(Cl)ccc1NS(=O)(=O)C(F)(F)F,100%,100%,11 ng/cm2,–,0.99 µg
CC/C(=N\OCC(F)(F)F)c1cc(Cl)ccc1NS(=O)(=O)C(F)(F)F,100%,80%,–,–,–
C/C(=N\OC(C)C)c1cc(Cl)ccc1NS(=O)(=O)C(F)(F)F,100%,95%,–,–,–
C/C(=N\OC1CCCC1)c1cc(Cl)ccc1NS(=O)(=O)C(F)(F)F,100%,100%,–,–,–
C/C(=N\OC1CCCCC1)c1ccc(C(F)(F)F)cc1NS(=O)(=O)C(F)(F)F,4%,–,–,–,–
CC(C)/C(=N\Oc1ccc(F)cc1)c1cc(Cl)ccc1NS(=O)(=O)C(F)(F)F,100%,42%,–,–,–

# — ChEMBL document CHEMBL1140776, “Parasiticidal 2-alkoxy- and 2-aryloxyiminoalkyl trifluoromethanesulfonanilides” (2008)
